The values that follow come from EP4782448A1, “SUBSTITUTED PYRIDOTRIAZOLE COMPOUND, AND PREPARATION METHOD THEREFOR AND USE THEREOF” (Origiant Pharmaceutical Co., Ltd., priority 2023, dated 2025).

This assay has as its system HT-29 cells. Description: In vitro assay for protection of HT-29 cells from necroptosis (TNFα/Smac mimetic/Z-VAD-FMK induction, CCK8 readout). The class given is cell-based. Conditions: TNFα/Smac mimetic/Z-VAD-FMK for 24 h; inhibition of necroptosis; read-out: HT-29 (EC50).

As usually defined, the EC50 is the midpoint of the concentration-response curve. Turning to `C[C@H](NC(=O)c1cn(C)c2ccc(-c3ccn4nc(NC(=O)c5ccnc(F)c5)nc4c3)cc12)c1ccc(F)cc1` [Compound 115], the EC50 was below 1 nM.
In the case of `C[C@H](NC(=O)c1cn(C)c2ccc(-c3ccn4nc(NC(=O)N5CCOCC5)nc4c3)cc12)c1ccc(F)cc1` [Compound 116], the EC50 was below 1 nM.
As to `C[C@H](NC(=O)c1cn(C)c2ccc(-c3ccn4nc(NC(=O)[C@H]5CCCO5)nc4c3)cc12)c1ccc(F)cc1` [Compound 117], the EC50 is below 1 nM.
In the case of `C[C@H](NC(=O)c1cn(C)c2ccc(-c3ccn4nc(NC(=O)N5CCOCC5)nc4c3)cc12)c1cccc(F)c1` [Compound 118] it was below 1 nM.
In the case of `C[C@H](NC(=O)c1cn(C)c2ccc(-c3ccn4nc(NC(=O)[C@H]5CCCO5)nc4c3)cc12)c1cccc(F)c1` [Compound 119] it was below 1 nM; in that of `C[C@H](NC(=O)c1cn(C)c2ccc(-c3ccn4nc(NC(=O)c5cnn(C)c5)nc4c3)cc12)c1cccc(F)c1` [Compound 120], below 1 nM; in that of `CN(C)CC(=O)Nc1nc2cc(-c3ccc4c(c3)c(C(=O)N[C@H]3CCc5ccc(F)cc53)cn4C)ccn2n1` [Compound 123], 1 to 10 nM.
For the compound `CC(=O)Nc1nc2cc(-c3ccc4c(c3)c(C(=O)N[C@@H]3C[C@H]3c3ccc(F)c(F)c3)cn4C)ccn2n1` [Compound 125], the EC50 is 1000 to 10000 nM.
With `CC(=O)Nc1nc2cc(-c3ccc4c(c3)c(C(=O)N[C@H]3CCc5cc(C#N)ccc53)cn4C)ccn2n1` [Compound 132], the EC50 is 100 to 1000 nM.
On to `Cn1cc(C(=O)N[C@H]2CCCc3cc(F)ccc32)c2cc(-c3ccn4nc(NC(=O)[C@H]5CCCO5)nc4c3)ccc21` [Compound 137], for which the EC50 is 10 to 100 nM.
`Cn1cc(C(=O)N[C@H]2CCCc3cc(F)ccc32)c2cc(-c3ccn4nc(NC(=O)[C@@H]5CCCO5)nc4c3)ccc21` [Compound 139]: the EC50 lay in the range of 1 to 10 nM.
In the case of `Cn1cc(C(=O)Nc2nc3cc(-c4ccc5c(c4)c(C(=O)N[C@H]4CCCc6cc(F)ccc64)cn5C)ccn3n2)cn1` [Compound 141] it was 1 to 10 nM; in that of `Cn1cc(C(=O)N[C@H]2CCCc3cc(F)ccc32)c2cc(-c3ccn4nc(NC(=O)CC#N)nc4c3)ccc21` [Compound 142], 10 to 100 nM.
Consider `Cn1cc(C(=O)Nc2nc3cc(-c4ccc5c(c4)c(C(=O)N[C@H]4CCCc6ccc(F)cc64)cn5C)ccn3n2)cn1` [Compound 143], for which the EC50 was 1 to 10 nM.
For `CC(=O)Nc1nc2cc(-c3ccc4c(c3)c(C(=O)N[C@H]3CCCc5ccc(F)cc53)cn4C)ccn2n1` [Compound 145], the EC50 was in the range of 1 to 10 nM.
With `Cn1cc(C(=O)N[C@H]2CCCc3ccc(F)cc32)c2cc(-c3ccn4nc(NC(=O)[C@H]5CCCO5)nc4c3)ccc21` [Compound 146], the EC50 lay in the range of 10 to 100 nM.
On to `Cn1cc(C(=O)NC2(c3ccc(F)cc3)COC2)c2cc(-c3ccn4nc(NC(=O)C5CC5)nc4c3)ccc21` [Compound 148], for which the EC50 was 10 to 100 nM.
`Cn1cc(C(=O)Nc2nc3cc(-c4ccc5c(c4)c(C(=O)N4CCOC[C@@H]4c4ccc(F)cc4)cn5C)ccn3n2)cn1` [Compound 149]: the EC50 is below 1 nM.
Regarding `Cn1cc(C(=O)N2CCOC[C@@H]2c2ccc(F)cc2)c2cc(-c3ccn4nc(NC(=O)C5CC5)nc4c3)ccc21` [Compound 151], the EC50 was below 1 nM.
With `Cn1cc(C(=O)N2CCC[C@H]2c2ccc(F)cc2)c2cc(-c3ccn4nc(NC(=O)N5CCOCC5)nc4c3)ccc21` [Compound 153], the EC50 is below 1 nM.
Turning to `Cn1cc(C(=O)N2CCC[C@H]2c2ccc(F)cc2)c2cc(-c3ccn4nc(NC(=O)C5CCCO5)nc4c3)ccc21` (some centres unmarked) [Compound 154], the EC50 was below 1 nM.
Regarding `Cn1cc(C(=O)Nc2nc3cc(-c4ccc5c(c4)c(C(=O)N[C@@H](CF)c4cccc(F)c4)cn5C)ccn3n2)cn1` [Compound 155], the EC50 was below 1 nM.
`Cn1cc(C(=O)N2CC(F)(F)CC2c2ccc(F)cc2)c2cc(-c3ccn4nc(NC(=O)C5CC5)nc4c3)ccc21` (centres unmarked) [Compound 158]: the concentration giving a half-maximal response (EC50) fell in the range of 1000 to 10000 nM.
